Source: patent US8389523B2, “Substituted quinoxaline and an agrochemical composition thereof” (Kumiai Chemical Industry Co., Ltd., priority 2007, dated 2013)

Tests used:
Assay type in all cases: in vivo
Set-up in all cases: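 grade 0 to 5 of growth suppression where 5 is 90% or more and 0 below 10%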
[1] = system: Abutilon theophrasti medicus; experiment: Herbicidal effects in upland field foliar treatment (Test Example 3); settings: criteria of Table 138; for herbicidal effects on Abutilon theophrasti medicus: 1000 g of the active ingredient per hectare, 14th day after the treatment, wettable powder
Procedure, shortened: (§1)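 Foliar spray of diluted wettable powder, 1000 g a.i./ha in 1000 L/ha, onto two-week-old greenhouse-grown seedlings in upland field soil. Plants kept in the greenhouse, with effect rated on a criteria scale at day 14.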

[2] = system: Echinochloa crus-galli (L.) P. Beauv. var. crus-galli; experiment: as above; settings: criteria of Table 138; for herbicidal effects on Echinochloa crus-galli (L.) P. Beauv. var. crus-galli: 1000 g of the active ingredient per hectare, 14th day after the treatment, wettable powder
Procedure, shortened: as §1

Amaranthus viridis L. [3] = experiment: as above; settings: criteria of Table 138; for herbicidal effects on Amaranthus viridis L.: 1000 g of the active ingredient per hectare, 14th day after the treatment, wettable powder
Procedure, shortened: as §1

[4] = system: Echinochloa oryzicola Vasing; experiment: Herbicidal effects in paddy field soil treatment (Test Example 1); settings: paddy field soil treatment; 1000 g of the active ingredient per hectare; wettable powder added dropwise on water surface; 21st day after treatment
Procedure, shortened: (§2)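 Application rate 1000 g a.i./ha, delivered as water-diluted wettable powder onto flooded (3 cm) paddy soil one day after sowing. Plants kept in a greenhouse and evaluated for herbicidal effect on day 21 post-treatment.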

[5] = system: Scirpus juncoides Roxb. var. ohwianus. T. Koyama; experiment: as above; settings: paddy field soil treatment; 1000 g of the active ingredient per hectare; wettable powder added dropwise on water surface; 21st day after treatment
Procedure, shortened: as §2

[6] = system: Monochoria vaginalis (Burm. f.) Presl var. plantaginea (Roxb.) Solms-Laub.; experiment: as above; settings: paddy field soil treatment; 1000 g of the active ingredient per hectare; wettable powder added dropwise on water surface; 21st day after treatment
Procedure, shortened: as §2

[7] = system: Abutilon theophrasti medicus; experiment: Herbicidal effects in upland field soil treatment (Test Example 2); settings: 1000 g active ingredient per hectare, 21st day after treatment, criteria of Table 138
Procedure, shortened: (§3)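 Herbicidal effect graded 21 days after treatment, plants kept in greenhouse. Treatment was a soil-surface spray of wettable powder in water, 1000 g a.i./ha in 1000 L/ha, applied after sowing and covering seeds.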

Amaranthus viridis L. [8] = experiment: as above; settings: 1000 g active ingredient per hectare, 21st day after treatment, criteria of Table 138
Procedure, shortened: as §3

[9] = 1000 g active ingredient per hectare, 14th day after treatment

Row | Structure (SMILES) | herbicidal effects on Abutilon theophrasti medicus [1] | herbicidal effects on Echinochloa crus-galli (L.) P. Beauv. var. crus-galli [2] | herbicidal effects on Amaranthus viridis L. (Amaranthus viridis L. [3]) | Herbicidal effects index, Echinochloa oryzicola Vasing [4] | Herbicidal effects index, Scirpus juncoides Roxb. var. ohwianus. T. Koyama [5] | Herbicidal effects index, Monochoria vaginalis (Burm. f.) Presl var. plantaginea (Roxb.) Solms-Laub. [6] | herbicidal effect (index) on Abutilon theophrasti medicus [7] | herbicidal effect (index) on Amaranthus viridis L. (Amaranthus viridis L. [8]) | herbicidal effect (index) on Abutilon theophrasti medicus [1, 9] | herbicidal effect (index) on Echinochloa crus-galli (L.) P. Beauv. var. crus-galli [2, 9] | herbicidal effect (index) on Amaranthus viridis L. (Amaranthus viridis L. [3]; [9])
1 | O=C1CCCC(O)=C1C(=O)c1nc2ccccc2n(-c2ccc([N+](=O)[O-])cc2)c1=O [II-131] | 5 | 5 | 5 | 5 | 5 | 5 | 5 | 5 | – | – | –
2 | O=C1CCCC(O)=C1C(=O)c1nc2ccccc2n(-c2cccc(C(F)(F)F)c2)c1=O [II-39] | 5 | 5 | 5 | 5 | 5 | 5 | 5 | 5 | – | – | –
3 | COc1ccc2nc(C(=O)C3=C(O)CCCC3=O)c(=O)n(-c3ccc(F)cc3)c2c1 [II-304] | 5 | 4 | 5 | 5 | 5 | 5 | 5 | 5 | – | – | –
4 | COc1cc(-n2c(=O)c(C(=O)C3=C(O)CCCC3=O)nc3ccccc32)ccc1C [II-168] | 5 | 4 | 5 | 5 | 5 | 5 | 5 | 5 | – | – | –
5 | Cc1cccc(-n2c(=O)c(C(=O)C3=C(O)CCCC3=O)nc3ccccc32)c1 [II-20] | 5 | 5 | 5 | 5 | 5 | 5 | 5 | 5 | – | – | –
6 | O=C1CCCC(O)=C1C(=O)c1nc2cc(F)ccc2n(-c2ccccc2)c1=O [II-237] | 5 | 5 | 5 | 5 | 5 | 5 | 5 | 5 | – | – | –
7 | C=CCn1c(=O)c(C(=O)C2=C(O)CCCC2=O)nc2cccnc21 [III-30] | 5 | 4 | 5 | 4 | 5 | 5 | 5 | 5 | – | – | –
8 | COc1ccc(-n2c(=O)c(C(=O)C3=C(O)CCCC3=O)nc3ccccc32)cn1 [I-189] | – | – | – | 5 | 5 | 5 | 5 | 5 | 5 | 4 | 5
9 | O=C1CCCC(O)=C1C(=O)c1nc2ccccc2n(-c2ccc(OC(F)F)cc2)c1=O [II-95] | 5 | 5 | 5 | 5 | 5 | 5 | 5 | 5 | – | – | –
